Among the data in patent publication US20050234076A1, “Triazolopyrimidines” (priority 2002, published 2005) are pest or weed control and chromatographic logP values, retold here.

For one data set, the system named is Venturia inaequalis. As to the kind of experiment: Venturia Test (apple)/protective. The format is in vivo. The note with it: 240 h, apple plants, protective spray, evaluation 10 days after inoculation, 100% = no infection, read-out: Efficacy in %. Here is the method: Venturia Test (apple)/protective Solvents: 24.5 parts by weight of acetone • 24.5 parts by weight of dimethylacetamide Emulsifier: 1.0 parts by weight alkylaryl polyglycol ether To produce a suitable preparation of active compound, 1 part by weight of active compound is mixed with the stated amounts of solvent and emulsifier, and the concentrate is diluted with water to the desired concentration. To test for protective activity, young plants are sprayed with the preparation of active compound at the stated application rate. […] The plants are then placed in a greenhouse at about 21° C. and a relative atmospheric humidity of about 90%.

The test system of a further data set is Botrytis cinerea. Nature of the data set: Botrytis Test (bean)/protective. The format is in vivo. The note with it: 48 h, bean plants, protective spray, evaluation 2 days after inoculation, 100% = no infection, read-out: Efficacy in %. Here is the method:
Botrytis Test (bean)/protective
Solvents: 24.5 parts by weight of acetone • 24.5 parts by of dimethylacetamide
Emulsifier: 1.0 part by weight of alkylaryl polyglycol ether
To produce a suitable preparation of active compound, 1 part by weight of active compound is mixed with the stated amounts of solvent and emulsifier, and the concentrate is diluted with water to the desired concentration.
To test for protective activity, young plants are sprayed with the preparation of active compound at the stated application rate. After the spray coating has dried on, 2 small pieces of agar colonized by Botrytis cinerea are placed onto each leaf. The inoculated plants are placed in a dark chamber at about 20° C. and 100% relative atmospheric humidity.
2 days after the inoculation the size of the infected areas on the leaves is evaluated. 0% means an efficacy which corresponds to that of the control, whereas an efficacy of 100% means that no infection is observed.

As for `Fc1cccc(F)c1-c1c(Cl)nc2ncnn2c1N1CCCCO1` [drawing 57], the pest or weed control at 100 g/ha in the data set on Venturia inaequalis amounted to 100%. The same measure, in the same setting: with `CC1CCON1c1c(-c2c(F)cc(F)cc2F)c(Cl)nc2ncnn12` (centres unmarked) [drawing 55] the figure was 100%.

`Fc1cc(F)c(-c2c(Cl)nc3ncnn3c2N2CCCCN2)c(C(F)(F)F)c1` [drawing 96]: in the data set with Botrytis cinerea, the pest or weed control at 500 g/ha came out at 100%. What is called chromatographic logP is a lipophilicity value derived from retention on a column. Low readings indicate a more hydrophilic compound, high ones a more lipophilic compound. For the compound `Fc1cccc(F)c1-c1c(Cl)nc2ncnn2c1N1CCCCO1` [Example 31], the chromatographic logP in the data set “physchem” stood at 2.68. With `Fc1cc(F)c(-c2c(Cl)nc3ncnn3c2N2CCCCN2)c(C(F)(F)F)c1` [drawing 68], the pest or weed control at 100 g/ha with Venturia inaequalis came out at 100%. As to `CC1CCCON1c1c(-c2ccccc2Cl)c(Cl)nc2ncnn12` (centres unmarked) [drawing 61], in the data set on Venturia inaequalis, the pest or weed control at 100 g/ha amounted to 99%. On the same count and under the same terms, the value for `Clc1cccc(Cl)c1-c1c(Cl)nc2ncnn2c1N1CCCCN1` [drawing 64] was 99%.

In “physchem”, `Clc1ccc(-c2c(Cl)nc3ncnn3c2N2CCCCN2)c(Cl)c1` [Example 69] showed a chromatographic logP of 3.22. Consider `Fc1ccc(-c2c(Cl)nc3ncnn3c2N2OC3CCC2C3)c(F)c1` (centres unmarked) [drawing 60], for which the pest or weed control at 100 g/ha with Venturia inaequalis was 100%. As for `CC1C=CCN(c2c(-c3c(F)cc(F)cc3F)c(Cl)nc3ncnn23)O1` (centres unmarked) [Example 58], the chromatographic logP in “physchem” was determined as 3.12. In the case of `Clc1cccc(Cl)c1-c1c(Cl)nc2ncnn2c1N1CCCCN1` [drawing 92], the pest or weed control at 500 g/ha in the data set with Botrytis cinerea was 99%. As for `CC1CCON1c1c(-c2c(F)cccc2Cl)c(Cl)nc2ncnn12` (centres unmarked) [Example 42], the chromatographic logP in the data set “physchem” was found to be 2.74.

As to `CC1C=CCN(c2c(-c3c(F)cc(F)cc3F)c(Cl)nc3ncnn23)O1` (centres unmarked) [drawing 80], in the data set with Botrytis cinerea, the pest or weed control at 500 g/ha was 93%. Turning to `Fc1ccc(-c2c(Cl)nc3ncnn3c2N2CCCCO2)c(F)c1` [Example 9], the chromatographic logP in “physchem” was found to be 2.84.

`CC1CCON1c1c(-c2c(F)cc(F)cc2F)c(Cl)nc2ncnn12` (centres unmarked) [Example 1, 5-chloro-6-(2,4,6-trifluorophenyl)-7-(3-methyl-2-isoxazolidinyl)[1,2,4]triazolo[1,5-a]pyrimidine] yielded a chromatographic logP in the data set “physchem” of 2.76. The chromatographic logP values of the last two compounds are within 0.2 log units of each other. Consider `Clc1ccccc1-c1c(Cl)nc2ncnn2c1N1OC2CCC1C2` (centres unmarked) [drawing 84], for which the pest or weed control at 500 g/ha with Botrytis cinerea was 93%. The same measure, in the same setting: the value for `Fc1cc(F)c(-c2c(Br)nc3ncnn3c2N2CCCCN2)c(F)c1` [drawing 99] was 100%. For `Fc1ccc(-c2c(Cl)nc3ncnn3c2N2CCCCO2)c(Cl)c1` [drawing 47], the pest or weed control at 100 g/ha in the data set on Venturia inaequalis turned out to be 100%. As for `Fc1cc(F)c(-c2c(Br)nc3ncnn3c2N2CCCCN2)c(F)c1` [Example 24], in “physchem”, the chromatographic logP amounted to 2.73. For the compound `Fc1cc(F)c(-c2c(Cl)nc3ncnn3c2N2OC3CCC2C3)c(C(F)(F)F)c1` (centres unmarked) [drawing 78], in the data set with Botrytis cinerea, the pest or weed control at 500 g/ha was 100%. For the compound `Fc1cc(F)c(-c2c(Cl)nc3ncnn3c2N2OC3CCC2C3)c(F)c1` (centres unmarked) [drawing 51], in the data set with Venturia inaequalis, the pest or weed control at 100 g/ha was 100%.

`Fc1cccc(Cl)c1-c1c(Cl)nc2ncnn2c1N1OC2CCC1C2` (centres unmarked) [drawing 86]: the pest or weed control at 500 g/ha in the data set with Botrytis cinerea turned out to be 100%. Still for that read-out and setting: with `Fc1ccc(-c2c(Cl)nc3ncnn3c2N2OC3CCC2C3)c(F)c1` (centres unmarked) [drawing 88] the figure was 99%. With `CCOC(=O)N1OCCC1C` (centres unmarked) [N-ethoxycarbonyl-3-methylisoxazolidine], the chromatographic logP in “physchem” was 1.22.

As for `Clc1cccc(Cl)c1-c1c(Cl)nc2ncnn2c1N1CCCCN1` [Example 21], the chromatographic logP in “physchem” was 2.88. As for `Fc1cc(F)c(-c2c(Cl)nc3ncnn3c2N2NC3CCC2C3)c(F)c1` (centres unmarked) [drawing 65], the pest or weed control at 100 g/ha with Venturia inaequalis is 93%. As for `Fc1cccc(Cl)c1-c1c(Cl)nc2ncnn2c1N1CCCCN1` [drawing 49], the pest or weed control at 100 g/ha with Venturia inaequalis was determined as 100%. Take `Fc1cc(F)c(-c2c(Cl)nc3ncnn3c2N2CCCCN2)c(F)c1` [Example 10]: in “physchem”, the chromatographic logP amounted to 2.68.

Consider `Fc1cc(F)c(-c2c(Cl)nc3ncnn3c2N2OC3CCC2C3)c(C(F)(F)F)c1` (centres unmarked) [drawing 53], for which, in the data set with Venturia inaequalis, the pest or weed control at 100 g/ha turned out to be 100%. With `Clc1ccc(-c2c(Cl)nc3ncnn3c2N2CCCCN2)c(Cl)c1` [drawing 97], in the data set on Botrytis cinerea, the pest or weed control at 500 g/ha was 95%. Same read-out and setting: the value for `CC1CCCON1c1c(-c2c(F)cc(F)cc2F)c(Cl)nc2ncnn12` (centres unmarked) [drawing 82] was 100%. Take `Fc1cc(F)c(-c2c(Cl)nc3ncnn3c2N2OC3CCC2C3)c(C(F)(F)F)c1` (centres unmarked) [Example 46]: the chromatographic logP in the data set “physchem” came to 3.1.

On to `Fc1cc(F)c(-c2c(Cl)nc3ncnn3c2N2Cc3ccccc3CO2)c(F)c1` [drawing 45], for which the pest or weed control at 100 g/ha in the data set with Venturia inaequalis is 100%. Consider `Clc1ccccc1-c1c(Cl)nc2ncnn2c1N1OC2CCC1C2` (centres unmarked) [Example 33], for which the chromatographic logP in the data set “physchem” is 2.69. As to `Fc1cc(F)c(-c2c(Cl)nc3ncnn3c2N2CCCCN2)c(F)c1` [drawing 77], the pest or weed control at 500 g/ha with Botrytis cinerea turned out to be 100%. For `Fc1cc(F)c(-c2c(Cl)nc3ncnn3c2N2CCC=N2)c(F)c1` [drawing 91], in the data set on Botrytis cinerea, the pest or weed control at 500 g/ha worked out at 100%. Same read-out and setting: with `Fc1cccc(F)c1-c1c(Cl)nc2ncnn2c1N1CCCCO1` [drawing 85] the figure was 100%. `CC1CCCON1c1c(-c2ccccc2Cl)c(Cl)nc2ncnn12` (centres unmarked) [Example 41] came in with a chromatographic logP in the data set “physchem” of 3.17.

As to `Fc1cc(F)c(-c2c(Cl)nc3ncnn3c2N2Cc3ccccc3CO2)c(F)c1` [drawing 72], the pest or weed control at 500 g/ha in the data set with Botrytis cinerea turned out to be 100%.

Regarding `CC1CCON1c1c(-c2c(F)cccc2Cl)c(Cl)nc2ncnn12` (centres unmarked) [drawing 87], the pest or weed control at 500 g/ha in the data set with Botrytis cinerea turned out to be 100%. Consider `Fc1ccc(-c2c(Cl)nc3ncnn3c2N2CCCCO2)c(Cl)c1` [Example 8], for which the chromatographic logP in the data set “physchem” was 3.11. Turning to `CC1CCCON1c1c(-c2c(F)cc(F)cc2F)c(Cl)nc2ncnn12` (centres unmarked) [Example 35], the chromatographic logP in the data set “physchem” turned out to be 3.23. Compound `Fc1cc(F)c(-c2c(Cl)nc3ncnn3c2N2NC3CCC2C3)c(F)c1` (centres unmarked) [Example 27] returned a chromatographic logP in the data set “physchem” of 2.65. In the data set “physchem”, `Fc1cc(C(F)(F)F)cc(F)c1-c1c(Cl)nc2ncnn2c1N1CCCCN1` [Example 68] gave a chromatographic logP of 3.26. For `Fc1cc(F)c(-c2c(Cl)nc3ncnn3c2N2CCC=N2)c(F)c1` [Example 11], the chromatographic logP in the data set “physchem” was 2.34. Turning to `Fc1cccc(F)c1-c1c(Cl)nc2ncnn2c1N1CCCCN1` [drawing 95], in the data set on Botrytis cinerea, the pest or weed control at 500 g/ha turned out to be 95%. `Fc1cccc(Cl)c1-c1c(Cl)nc2ncnn2c1N1CCCCN1` [Example 12] displayed a chromatographic logP in the data set “physchem” of 2.67. `Fc1cc(C(F)(F)F)cc(F)c1-c1c(Cl)nc2ncnn2c1N1CCCCN1` [drawing 98]: the pest or weed control at 500 g/ha in the data set on Botrytis cinerea was found to be 95%. In the data set “physchem”, `Fc1cccc(Cl)c1-c1c(Cl)nc2ncnn2c1N1OC2CCC1C2` (centres unmarked) [Example 34] showed a chromatographic logP of 2.74. For `Fc1cc(F)c(-c2c(Cl)nc3ncnn3c2N2CCCCO2)c(F)c1` [drawing 73], the pest or weed control at 500 g/ha in the data set on Botrytis cinerea is 100%.

With `CC1CCON1c1c(-c2c(F)cc(F)cc2F)c(Cl)nc2ncnn12` (centres unmarked) [drawing 83], the pest or weed control at 500 g/ha in the data set with Botrytis cinerea amounted to 100%. `CC1CCCON1c1c(-c2ccccc2Cl)c(Cl)nc2ncnn12` (centres unmarked) [drawing 89]: the pest or weed control at 500 g/ha in the data set on Botrytis cinerea amounted to 99%. Compound `Fc1cccc(Cl)c1-c1c(Cl)nc2ncnn2c1N1NC2CCC1C2` (centres unmarked) [Example 28] had a chromatographic logP in “physchem” of 2.59. Take `Fc1cccc(F)c1-c1c(Cl)nc2ncnn2c1N1CCCCN1` [Example 63]: the chromatographic logP in “physchem” was 2.47.

For the compound `Fc1cc(F)c(-c2c(Cl)nc3ncnn3c2N2NC3CCC2C3)c(F)c1` (centres unmarked) [drawing 93], the pest or weed control at 500 g/ha in the data set on Botrytis cinerea turned out to be 96%. In the data set “physchem”, `Fc1cc(F)c(-c2c(Cl)nc3ncnn3c2N2Cc3ccccc3CO2)c(F)c1` [Example 5] yielded a chromatographic logP of 3.53. `Fc1ccc(-c2c(Cl)nc3ncnn3c2N2OC3CCC2C3)c(F)c1` (centres unmarked) [Example 43]: in the data set “physchem”, the chromatographic logP stood at 2.67. Turning to `Fc1ccc(-c2c(Cl)nc3ncnn3c2N2OC3CCC2C3)c(Cl)c1` (centres unmarked) [drawing 90], in the data set with Botrytis cinerea, the pest or weed control at 500 g/ha stood at 100%. Take `Fc1ccc(-c2c(Cl)nc3ncnn3c2N2CCCCO2)c(Cl)c1` [drawing 74]: in the data set on Botrytis cinerea, the pest or weed control at 500 g/ha turned out to be 100%. Take `Fc1ccc(-c2c(Cl)nc3ncnn3c2N2CCCCO2)c(F)c1` [drawing 75]: the pest or weed control at 500 g/ha in the data set on Botrytis cinerea came out at 100%. As for `Fc1ccc(-c2c(Cl)nc3ncnn3c2N2OC3CCC2C3)c(Cl)c1` (centres unmarked) [Example 44], the chromatographic logP in “physchem” amounted to 2.89. For the compound `Fc1cc(F)c(-c2c(Cl)nc3ncnn3c2N2OC3CCC2C3)c(F)c1` (centres unmarked) [Example 18], the chromatographic logP in “physchem” came to 2.75. This chromatographic logP and that of the compound before are within 0.2 log units of each other. Regarding `Fc1cccc(Cl)c1-c1c(Cl)nc2ncnn2c1N1CCCCN1` [drawing 76], the pest or weed control at 500 g/ha in the data set on Botrytis cinerea was 100%. For the compound `Fc1cccc(Cl)c1-c1c(Cl)nc2ncnn2c1N1NC2CCC1C2` (centres unmarked) [drawing 94], the pest or weed control at 500 g/ha with Botrytis cinerea was found to be 100%.

Take `Fc1cc(F)c(-c2c(Cl)nc3ncnn3c2N2CCCCN2)c(C(F)(F)F)c1` [Example 67]: the chromatographic logP in the data set “physchem” amounted to 3.06. On to `Fc1cc(F)c(-c2c(Cl)nc3ncnn3c2N2CC=CCO2)c(F)c1`, for which, in the data set on Botrytis cinerea, the pest or weed control at 500 g/ha came out at 100%. `Fc1cc(F)c(-c2c(Cl)nc3ncnn3c2N2CCCCO2)c(F)c1` [Example 6]: the chromatographic logP in “physchem” was determined as 2.92. Take `Fc1cc(F)c(-c2c(Cl)nc3ncnn3c2N2OC3CCC2C3)c(F)c1` (centres unmarked) [drawing 81]: in the data set on Botrytis cinerea, the pest or weed control at 500 g/ha came to 98%.
